The values below come from article PMC7982595 (Frontiers in Pharmacology, 2021).

Where a name gives a salt, the structure may show the parent alone. Read-outs that look alike come from different tables or passages of the source.

The nature of data set [1]: Determination of solubility in different solvents (shaken 24 h, HPLC). The class given is physicochemical. To be noted: 25 °C, thermodynamic from solid, mean ± SD. On the procedure: Then they were shaken for 24 h with 100 rpm at 25°C. At last, the supernatant was directly injected into HPLC after high speed centrifugation (3,000 rpm for 10 min).
The nature of data set [2]: In vivo drug release / pharmacokinetics, plasma galantamine by HPLC-ESI-MS/MS. Further details: species or system Sprague-Dawley (SD) rats; AUC0-t / AUC0-∞: unit not given here. The note with it: 24 mg/kg. The method, then:
Healthy Sprague-Dawley (SD) rats weighing 200–210 g were supplied by the Experimental Animal Breeding Center of Jinan Pengyue Co., Ltd. (Jinan, China). Before the drug administration, all rats were fasted for 12 h. But they were free access to diet and water throughout the study ([Zhang et al., 2019]). This study conformed to the Guide for the Care and Use of Laboratory Animals.
The study groups were carried out with twelve rats, which were randomly divided into two groups each with six rats. […] The blood samples of both groups were obtained via the orbital venous plexus and collected into heparinized tubes before and after dosing at 1 h, 3 h, 6 h, 12 h, 1 day, 2 days, 3 days, 4 days, 6 days, 8 days, 10 days, 12 days, […], 16 days, 18 days, 20 days. Other eighteen rats were randomly divided into the placebo group, negative group and oral administration group of six rats each. The placebo group received […] microspheres suspension in diluent at a single dose of 20 mg/kg by i.m., and the blood samples of this group were obtained the same as group I. The negative group was also carried out without any treatment, and the blood samples of this group were obtained the same as group I. The oral administration group was performed with GLT-PM (24 mg/kg), which was infused to stomach of rats. The blood samples of oral administration group were obtained before and after dosing at 15 min, 30 min, 45 min, 1 h, 1.5 h, 2 h, 3 h, 4 h, 6 h, 8 h, 12 h, 24 h, 48 h, 72 h. All blood samples were centrifuged immediately at 4,500 rpm for 10 min, and the plasma samples were separated into EP tubes and stored at −80°C until analysis ([Jiang et al., 2014]; [Zhang et al., 2019]).
After thawing at room temperature, 50 μL plasma samples were separately added into a […] centrifuge tube with the addition of 150 μL of acetonitrile. This mixture was vortex mixed for 1 min and centrifuged at 12700 rpm for 10 min. Then 100 μL supernate was mixed with 100 μL deionized water, and they was injected into vials for analysis ([Zhang et al., 2019]).
AB Sciex QTrap 6,500 + triple-quadrupole tandem mass spectrometer (Applied Biosystem Inc., Foster City, Calif, United States) was connected to Waters Acquity UPLC H-Class HPLC system (Waters Inc., Milford, Massachusetts, United States) via electro-spray ionization (ESI) interface. LC separation was performed on a Waters BEH C8 column (2.1 × 50 mm I.D., 1.7 μm) with mobile phase A (1 mmol/L ammonium acetate solution) and phase B (mixture of acetonitrile and methanol, 4:1, v/v) at 40°C, which was used with gradient elution as shown in Table 2 ([Suresha et al., 2014]). Quantitative analyses were performed in positive ion mode on a 6500 Q-trap mass analyzer (AB Sciex, Framingham, MA) coupled with electrospray ion source. Multiple reaction monitoring (MRM) mode was used for the quantification with ion spray voltage set at 5500 V, curtain gas 35 psi, […], and the interface heater temperature 450°C. […]
The plasma concentration-time data were analyzed with non-compartmental model by Phoenix WinNonlin 8.1 software (Pharsight Corporation, United States) to obtain the pharmacokinetic parameters, which included the area under the plasma concentration-time curve (AUC), half-life (T1/2) and mean residence time (MRT). The maximum plasma drug concentration (Cmax) and the time required to reach Cmax (Tmax) were directly read from the plasma concentration-time data.

For data set [3] the following is noted: 25°C; ref Marco-Contelles et al., 2005; Saigal et al., 2013; cited from earlier work.
[4] abbreviates: n = 3, read-out: Solubility, benzyl alcohol.
Setting [5] is: n = 3, read-out: Solubility, deionized water.
Setting [6] is: n = 3, read-out: Solubility, dichloromethane.
[7] abbreviates: n = 3, read-out: Solubility, methanol.
The mark [8] stands for this setting: Oral administration: rats, plasma galantamine.
The mark [9] stands for this setting: Sprague-Dawley, rat, plasma, po.

Turning to `COc1ccc2c3c1O[C@H]1C[C@@H](O)C=C[C@@]31CCN(C)C2.COc1ccc2c3c1O[C@H]1C[C@@H](O)C=C[C@@]31CCN(C)C2.O=C(O)c1cc2ccccc2c(Cc2c(O)c(C(=O)O)cc3ccccc23)c1O` [GLT-PM, galantamine pamoate], the solubility (commonly how much of the substance goes into solution per volume) at 24 h was determined as 357300 ± 210 µg/mL in data set [1] (setting [4]), 200 ± 20 µg/mL in data set [1] (setting [5]), 8720 ± 520 µg/mL in data set [1] (setting [6]) and 1010 ± 210 µg/mL in data set [1] (setting [7]). This compound displayed an AUC0-t in data set [2] (setting [8]) of 532.54 ± 73.08. Besides, the “AUC0-∞” value in data set [2] (setting [8]) was found to be 532.91 ± 72.92. Also, the peak level in data set [2] (setting [9]) (Cmax) was 119 ± 44.6 ng/mL. Further, the Tmax (commonly the time at which the peak concentration occurs) in data set [2] (setting [9]) was 0.96 h. Further, in data set [2] (setting [9]), the half-life (as a rule, the time needed for the level to fall by half in the phase considered) was 4.32 h.

Turning to `COc1ccc2c3c1O[C@H]1C[C@@H](O)C=C[C@@]31CCN(C)C2` [Galantamine hydrobromide, reference compound], the solubility at 24 h in data set [1] (setting [4]) came out at 1570 ± 190 µg/mL; in data set [1] (setting [5]), 4320 ± 370 µg/mL; in data set [1] (setting [6]) it was 320 ± 30 µg/mL; in data set [1] (setting [7]), 820 ± 90 µg/mL. Moreover, the Solubility (as a rule, how much of the substance goes into solution per volume) in data set [3] is 5170 µg/mL.
